The target in this assay is Recombinant human factor D (Homo sapiens (Human), UniProt P00746). Description: Human Complement Factor D Assay: Method 1. It is filed as biochemical. The settings on record: Factor D inhibition, Method 1: 10 nM factor D, 1 hour incubation with compound at room temperature, substrate Z-Lys-thiobenzyl, fluorescence readout; read-out: IC50.
Chain of Recombinant human factor D (P00746 26-253): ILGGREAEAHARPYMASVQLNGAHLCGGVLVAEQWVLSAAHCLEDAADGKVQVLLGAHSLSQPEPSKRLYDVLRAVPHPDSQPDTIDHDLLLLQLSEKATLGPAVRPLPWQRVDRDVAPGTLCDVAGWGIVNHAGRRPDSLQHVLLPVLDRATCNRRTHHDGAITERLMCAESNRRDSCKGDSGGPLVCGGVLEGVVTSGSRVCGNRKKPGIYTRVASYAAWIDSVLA
Experimental: Recombinant human factor D (expressed in E. coli and purified using standard methods) at 10 nM concentration is incubated with test compound at various concentrations for 1 hour at room temperature in 0.1 M Hepes buffer, pH 7.5, containing 1 mM MgCl2, 1 M NaCl and 0.05% CHAPS. […] IC50 values are calculated from percentage of inhibition of complement factor D-activity as a function of test compound concentration.
Usually IC50 stands for the concentration at which inhibition is half-maximal. As to `CC(=O)c1nn(CC(=O)N2[C@@H]3C[C@@H]3C[C@H]2C(=O)N[C@@H]2C[C@H]2c2cccc(Cl)c2)c2ncccc12` [Example 54, (1R,3S,5R)-2-[2-(3-Acetyl-pyrazolo[3,4-b]pyridin-1-yl)-acetyl]-2-aza-bicyclo[3.1.0]hexane-3-carboxylic acid[(1R,2S)-2-(3-chloro-phenyl)-cyclopropyl]-amide], the IC50 stood at 225 nM.

In the case of `CC(=O)c1nn(CC(=O)N2[C@@H]3C[C@@H]3C[C@H]2C(=O)N[C@H]2C[C@@H]2c2cccc(Cl)c2)c2ncccc12` [Example 55, (1R,3S,5R)-2-[2-(3-acetyl-pyrazolo[3,4-b]pyridin-1-yl)-acetyl]-2-aza-bicyclo[3.1.0]hexane-3-carboxylic acid[(1S,2R)-2-(3-chloro-phenyl)-cyclopropyl]-amide], the IC50 was found to be 1580 nM.

Consider `CC(=O)c1nn(CC(=O)N2[C@@H]3C[C@@H]3C[C@H]2C(=O)N[C@@H]2C[C@H]2c2cccc(Cl)c2F)c2ncccc12` [Example 56, (1R,3S,5R)-2-[2-(3-Acetyl-pyrazolo[3,4-b]pyridin-1-yl)-acetyl]-2-aza-bicyclo[3.1.0]hexane-3-carboxylic acid [(1R,2S)-2-(3-chloro-2-fluoro-phenyl)-cyclopropyl]-amide], for which the IC50 came out at 109 nM.

In the case of `CC(=O)c1nn(CC(=O)N2[C@@H]3C[C@@H]3C[C@H]2C(=O)N[C@H]2C[C@@H]2c2cccc(Cl)c2F)c2ncccc12` [Example 57, (1R,3S,5R)-2-[2-(3-Acetyl-pyrazolo[3,4-b]pyridin-1-yl)-acetyl]-2-aza-bicyclo[3.1.0]hexane-3-carboxylic acid [(1S,2R)-2-(3-chloro-2-fluoro-phenyl)-cyclopropyl]-amide], the IC50 amounted to 1610 nM.

Turning to `CC(=O)c1nn(CC(=O)N2[C@@H]3C[C@@H]3C[C@H]2C(=O)N[C@@H]2C[C@H]2c2ccccc2F)c2ncccc12` [Example 63, (1R,3S,5R)-2-[2-(3-Acetyl-pyrazolo[3,4-b]pyridin-1-yl)-acetyl]-2-aza-bicyclo[3.1.0] hexane-3-carboxylic acid [(1R,2S)-2-(2-fluoro-phenyl)-cyclopropyl]-amide], the IC50 came to 64 nM.

With `CC(=O)c1nn(CC(=O)N2[C@@H]3C[C@@H]3C[C@H]2C(=O)N[C@H]2C[C@@H]2c2ccccc2F)c2ncccc12` [Example 64, (1R,3S,5R)-2-[2-(3-Acetyl-pyrazolo[3,4-b]pyridin-1-yl)-acetyl]-2-aza-bicyclo[3.1.0] hexane-3-carboxylic acid [(1S,2R)-2-(2-fluoro-phenyl)-cyclopropyl]-amide], the IC50 was 791 nM.

On to `CC(=O)c1nn(CC(=O)N2[C@@H]3C[C@@H]3C[C@H]2C(=O)N[C@@H]2C[C@H]2c2ccccc2Cl)c2cnccc12` [Example 65, (1R,3S,5R)-2-[2-(3-Acetyl-pyrazolo[3,4-c]pyridin-1-yl)-acetyl]-2-aza-bicyclo[3.1.0] hexane-3-carboxylic acid [(1R,2S)-2-(2-chloro-phenyl)-cyclopropyl]-amide], for which the IC50 was 30 nM.

In the case of `CC(=O)c1nn(CC(=O)N2[C@@H]3C[C@@H]3C[C@H]2C(=O)N[C@@H]2C[C@H]2c2ccccc2Cl)c2ncccc12` [Example 66, (1R,3S,5R)-2-[2-(3-Acetyl-pyrazolo[3,4-b]pyridin-1-yl)-acetyl]-2-aza-bicyclo[3.1.0] hexane-3-carboxylic acid [(1R,2S)-2-(2-chloro-phenyl)-cyclopropyl]-amide], the IC50 is 44 nM.

Turning to `NC(=O)c1nn(CC(=O)N2[C@@H]3C[C@@H]3C[C@H]2C(=O)N[C@@H]2C[C@H]2c2ccccc2Cl)c2cnccc12` [Example 67, 1-(2-{(1R,3S,5R)-3-[(1R,2S)-2-(2-Chloro-phenyl)-cyclopropylcarbamoyl]-2-aza-bicyclo[3.1.0]hex-2-yl}-2-oxo-ethyl)-1H-pyrazolo[3,4-c]pyridine-3-carboxylic acid amide], the IC50 was determined as 35 nM.

Take `CCc1cc2c(C(N)=O)nn(CC(=O)N3[C@@H]4C[C@@H]4C[C@H]3C(=O)N[C@@H]3C[C@H]3c3ccccc3Cl)c2cn1` [Example 68, 1-(2-{(1R,3S,5R)-3-[(1R,2S)-2-(2-Chloro-phenyl)-cyclopropylcarbamoyl]-2-aza-bicyclo[3.1.0]hex-2-yl}-2-oxo-ethyl)-5-ethyl-1H-pyrazolo[3,4-c]pyridine-3-carboxylic acid amide]: the IC50 was found to be 37 nM.

Regarding `Cc1cc2c(C(N)=O)nn(CC(=O)N3[C@@H]4C[C@@H]4C[C@H]3C(=O)N[C@@H]3C[C@H]3c3ccccc3F)c2cn1` [Example 70, 1-(2-{(1R,3S,5R)-3-[(1R,2S)-2-(2-Fluoro-phenyl)-cyclopropylcarbamoyl]-2-aza-bicyclo[3.1.0]hex-2-yl}-2-oxo-ethyl)-5-methyl-1H-pyrazolo[3,4-c]pyridine-3-carboxylic acid amide], the IC50 was 125 nM.

Regarding `Cc1cc2c(C(N)=O)nn(CC(=O)N3C[C@H](F)C[C@H]3C(=O)N[C@@H]3C[C@H]3c3ccccc3F)c2cn1` [Example 71, 1-(2-{(2S,4R)-4-Fluoro-2-[(1R,2S)-2-(2-fluoro-phenyl)-cyclopropylcarbamoyl]-pyrrolidin-1-yl}-2-oxo-ethyl)-5-methyl-1H-pyrazolo[3,4-c]pyridine-3-carboxylic acid amide], the 50% inhibitory concentration (IC50) was 90 nM.

`NC(=O)c1nn(CC(=O)N2C[C@H](F)C[C@H]2C(=O)N[C@@H]2C[C@H]2c2ccc(Cl)cc2)c2cnccc12` [Example 72, 1-(2-{(2S,4R)-2-[(1R,2S)-2-(4-Chloro-phenyl)-cyclopropylcarbamoyl]-4-fluoro-pyrrolidin-1-yl}-2-oxo-ethyl)-1H-pyrazolo[3,4-c]pyridine-3-carboxylic acid amide]: the concentration for half-maximal inhibition (IC50) is 309 nM.

On to `Cc1cc2c(C(N)=O)nn(CC(=O)N3[C@@H]4C[C@@H]4C[C@H]3C(=O)N[C@@H]3C[C@H]3c3ccccc3Cl)c2cn1` [Example 73, 1-(2-{(1R,3S,5R)-3-[(1R,2S)-2-(2-Chloro-phenyl)-cyclopropylcarbamoyl]-2-aza-bicyclo[3.1.0]hex-2-yl}-2-oxo-ethyl)-5-methyl-1H-pyrazolo[3,4-c]pyridine-3-carboxylic acid amide], for which the IC50 was found to be 45 nM.

Consider `CC(=O)c1nn(CC(=O)N2[C@@H]3C[C@@H]3C[C@H]2C(=O)N[C@@H]2C[C@H]2c2ccccc2F)c2cc(C(=O)O)ccc12` [Example 87, 3-Acetyl-1-(2-{(1R,3S,5R)-3-[(1R,2S)-2-(2-fluoro-phenyl)-cyclopropylcarbamoyl]-2-aza-bicyclo[3.1.0]hex-2-yl}-2-oxo-ethyl)-1H-indazole-6-carboxylic acid], for which the IC50 amounted to 46 nM.

For the origin of these results see patent publication US9815819B2, “Complement pathway modulators and uses thereof” (priority 2012, dated 2017).
